From US11612601B1, “Targeting epidermal growth factor to treat vascular calcification” (THE FLORIDA INTERNATIONAL UNIVERSITY BOARD OF TRUSTEES, priority 2022, dated 2023)

Experiments:
CKD mice [1] = assay: Serum EGFR level and serum TNAP activity in CKD mice; type: in vivo, mouse; details: 10 mg/kg daily, vs CKD
Description: Along with this calcifying diet, a group of mice (n=19) received daily tyrphostin AG1478 (10 mg/kg mouse, Millipore Sigma, T4182) via oral gavage. The remaining mice (n=19) received vehicle treatment (1% w/v, carboxymethylcellulose sodium salt, Sigma, C5678). For non-diseased controls, a third group of mice (n=12, 6 per biological sex) were fed a regular chow diet and received the vehicle for the final two weeks. During the oral gavage, animals were partially anesthetized using isoflurane (1%, Patterson Veterinary, 07-893-1389, in 2 L.min^−1 oxygen flow). […] At study endpoint, mice were anesthetized with isoflurane (1%, in 2 L.min^−1 oxygen flow) followed by retro-orbital bleeding for blood collection. Mice were then immediately euthanized by laceration of the diaphragm before tissue collection. […] For mice serum TNAP activity, the samples were diluted 1:20 and assessment was performed according to the manufacturer's protocol.

CKD mice [2] = assay: Aorta immunofluorescence and subcellular (cytosolic) fractionation in CKD mice; type: in vivo, mouse
Description: 8-week-old wild type C57BL/6J mice (n=20, female) received the adenine-supplemented diet for 6 weeks to induce CKD, followed by two additional weeks of the diet containing 1.8% phosphate and 0.2% adenine to induce medial calcinosis. Mice were split into two groups (10 per group). The first group received daily tyrphostin AG1478 (10 mg/kg mouse), while the other group received vehicle (1% w/v, carboxymethylcellulose sodium salt). At study endpoint, the animals were euthanized, and the aortas were resected.
A subcellular protein fractionation kit for tissue (Thermofisher, 87790) was used to isolate cellular cytosolic fraction from the resected aortas, using the manufacturer's protocol. Briefly, the tissues were minced and homogenized using a grinder. The samples were then incubated in a cytoplasmic extraction buffer for 10 min at 4° C., followed by centrifugation at 1000×g for 5 min. The supernatants yielded the cytosolic fraction. To obtain sufficient protein for analyses, two aortas were pooled per data point.
VSMCs, osteoblasts, isolated EVs (either from cells or mouse aortas), and matrix vesicles (from osteoblasts) were lysed in RIPA lysis and extraction buffer supplemented with protease inhibitor. After adding Laemmli SDS-sample buffer (1:4 v/v, Boston BioProducts, BP-110R) to each lysate, the samples were denatured at 100° C. for 10 min, loaded into 7.5-12% 1-mm SDS-PAGE gel (15 to 20 μg protein per lane), and run at 170 V. The proteins were then transferred to Trans-Blot turbo nitrocellulose membranes (BIO-RAD, 1704158) at 25 V for 7 min.
To quantify the total protein, the membranes were stained using 2% w/v Ponceau stain (Alfa Aesar, AAJ6074409) for 20 min, followed by one wash with 5% acetic acid and milliQ water for 5 min. After imaging, the intensity of each lane was measured in ImageJ for total protein normalization. Membranes were blocked with 5% w/v bovine serum albumin (HyClone, SH30574.01) in TBS-Tween (1×) for 1 hour. […] The protein bands were visualized with Odyssey CLx scanner (Li-Cor), and quantified using Image Studio Lite software (Li-Cor). […]

[3] = test system: Primary human coronary artery vascular smooth muscle cells; assay: In vitro calcification of VSMCs, Alizarin Red S staining; type: cell-based; details: OS media, 2.5 μM, 28 days
Description: Primary human coronary artery vascular smooth muscle cells, (VSMCs, ATCC, PCS-100-021) were cultured using vascular smooth muscle cell media and growth kit (ATCC, PCS-100-042). VSMCs (passage 4-6) were harvested using 0.05% trypsin-EDTA solution (Caisson Labs, TRL04) and seeded with a density of 26,320 cells.cm^−2 and incubated for 72 hours at 37° C., 5% CO2 with controlled humidity prior to treatment. VSMCs were treated with either control media, consisting of DMEM (HyClone, SH30022.01), 10% v/v bovine calf serum (iron-supplemented, R&D Systems, S11950), and 1% v/v penicillin-streptomycin (Gibco, 15070-063), or with an osteogenic media (OS) optimized to induce calcification. OS media were supplemented with 10 mM β-glycerophosphate (Sigma, 13408-09-8), 0.1 mM L-ascorbic acid (Sigma, 113170-55-1), and 10 nM dexamethasone (Sigma, 50-02-2).
To assess the role of EGFR inhibition, tyrphostin AG1478 (Millipore Sigma, T4182) was dissolved in vehicle (DMSO:Methanol, 1:1) and added to OS media to a final concentration of 2.5 μM. An equal volume of vehicle was added to the control and OS groups. […]
To quantify the in vitro calcification, ARS stain was extracted using acetic acid (1.67 M, Fisher Chemical, A38S) on a shaker. […] Sample absorbance of 405 nm was measured using a multi-mode reader (BioTek, Synergy HTX).

[4] = treated CKD animals compared to CKD group

## COc1cc2ncnc(Nc3cccc(Cl)c3)c2cc1OC [AG1478, tyrphostin AG1478]
CKD mice [1]; p=0.06
  serum TNAP activity: did not significantly reduce
CKD mice [1]; p=0.78
  level of serum EGFR: no significant difference
CKD mice [2]; qualitative, CKD mice treated, compared to chow-fed controls
  CAV1, EGFR, and TNAP immunofluorescence in the aorta: elevation of all three proteins
CKD mice [2]; [4]
  cytosolic CAV1 protein in aorta: higher
  cytosolic TNAP protein in aorta: higher
[3]
  in vitro calcification of VSMCs (ARS staining): abrogated
